Data on one compound can be found in patent publication US8222242B2, “Nitric oxide releasing compounds” (The Regents of the University of California, priority 2008, dated 2012).

The structures appear in SMILES notation.

This data set relates to mice. It counts as in vivo, mouse. As to the method: Mice were anesthetized with 1.5% isoflurane gas, and after achieving a stable blood pressure and pulse (about 10 minutes), they were injected intraperitoneally with 100 μl of […] 8 mM Cbi(II) (open circles, solid line), 8 mM NO-Cbi (filled circles, dashed line), or 8 mM nitroglycerin (squares, dotted lines) (panels a and b). Control refers to anesthetized mice who received 100 μl water (triangles, solid line). In panel C, 100 μl of 6 mM NO-Cbi was injected at 0, 32, and 64 minutes as indicated by the arrows. Systolic and diastolic blood pressures, and pulse rate, were measured at the indicated times on the tail artery using a non-invasive tail cuff. The percent change in mean arterial pressure (A and C), and pulse rate (B and C) are shown. For panels A and B, data are the mean±SD of results from five mice for NO-Cbi studied on separate days, and four mice for the other conditions. […] Data in panel C are the mean±SD of results from three mice studied on different days.
Pulse, and systolic and diastolic blood pressures, were measured non-invasively in the tail artery of mice by restraining mice on a warming platform maintained at ˜38° C. The base of the tail was placed in a computer-controlled pneumatic cuff, and the distal tail was placed in a sensor assembly consisting of a light emitting diode and a photodiode detector. Baseline measurements were made with the mice awake in a dark chamber. The mice were then anesthetized with 3% isoflurane in an induction chamber, and returned to the platform where they received 1.5% isoflurane with 2 liter per minute of oxygen via a nose cone; the isoflurane caused a small, but stable, drop in blood pressure. Drugs in a volume of 100 ul were injected intraperitoneally into the mice, and pulse and blood pressure were measured every 5-15 minute, taking five readings at each time point.
To determine the effect of NO release from NO-Cbi in an intact mammal, blood pressure and pulse of mice injected intraperitoneally with NO-Cbi were measured.

Take `CC1=C2[N+]3=C(C=C4[N+]5=C(C(C)=C6[N]7C(C(CC(N)=O)C6(C)CCC(=O)NCC(C)O)C6(C)[N+](=C1C(CCC(N)=O)C6(C)CC(N)=O)[Co-3]753[N]=O)C(CCC(N)=O)C4(C)C)C(CCC(N)=O)C2(C)CC(N)=O` (stereo not drawn) [NO-Cbi, nitrosyl cobinamide]: the “systolic and diastolic blood pressure” value (0.8 μmol (100 μl of 8 mM) intraperitoneally, anesthetized mice) is “rapidly reduced”. Moreover, under “0.8 μmol intraperitoneally”, the “increase of pulse rate compared with nitroglycerin” value is recorded as “more pronounced than that observed with nitroglycerin” and the “time required for blood pressure to return to control values” is around 45 min. The “blood pressure reduction compared with nitroglycerin” value (equimolar amounts, intraperitoneally) is on record as “reduced blood pressure more potently than an equimolar amount of nitroglycerin”. For the same compound, the “half-life of NO-Cbi in the mice” value (mouse, in vivo) fell in the range of 30 to 60 min. Further, the “pulse rate above control values” (until 75 minutes) is recorded as “more than 10%”.
